Laboratory results from US8530646B2, “Oxazolidinone derivative having 7-membered hetero ring” (Research Foundation Itsuu Laboratory, priority 2007, dated 2013).

Tests used:
Assay in all cases: MIC determination by CLSI standard method (broth dilution, Mueller Hinton Broth)
Assay type in all cases: cell-based
Conditions in all cases: cation-adjusted Mueller Hinton Broth, inoculum about 5×10^5 CFU/mL, read-out: Minimal inhibitory concentration (MIC)
[1] = system: MRSA (methicillin-resistant Staphylococcus aureus)
Experimental: (§1) The compounds of the invention were tested for antimicrobial activity.
(§2) Minimal inhibitory concentration (MIC: μg/ml) against different strains of bacteria was determined according to the standard method recommended by CLSI (clinical and laboratory standards institute). Samples were prepared by dissolving a test compound solution into DMSO (1280 μg/mL), followed by two fold dilution with DMSO. The sample was added to a bacteria suspension at the concentration of 5%, and MIC was determined. Mueller Hinton Broth was adjusted for cation concentration and used as a culture media. The inoculation concentration was about 5×10^5 CFU/mL.

[2] = system: VRE (vancomycin resistance enterococcus)
Experimental: as §1, §2

[3] = system: VISA (vancomycin-intermediate Staphylococcus aureus)
Experimental: as §1, §2

[4] = system: PRSP (penicillin resistant Streptococcus pneumoniae)
Experimental: as §1, §2

Measured: MIC

COC(=S)NC[C@H]1CN(c2ccc(N3CCNN(C(=O)Cn4cc(Cl)cn4)CC3)c(F)c2)C(=O)O1 [Example A91]
≤ 1 µg/mL: all assays above

CC(=S)NC[C@H]1CN(c2cc(F)c(N3CCON(C(=O)c4ccccc4O)CC3)c(F)c2)C(=O)O1 [Example B38]
≤ 1 µg/mL: all assays above
